Measurements: DBAASP
In brackets after ≈: the same amount, converted by molar mass.

Tests used:
Assay in all cases: ≥ marks a high value that may be exact or a test limit, other limits are often not marked, values filed in µg/mL are converted to µM
[1] = test system: Staphylococcus aureus ATCC 43300
[2] = test system: Escherichia coli ATCC 25922
[3] = test system: Cryptococcus neoformans ATCC 208821
[4] = test system: Klebsiella pneumoniae ATCC 700603
[5] = test system: Pseudomonas aeruginosa ATCC 27853
[6] = test system: Acinetobacter baumannii ATCC 19606
[7] = test system: Candida albicans ATCC 90028
[8] = test system: Staphylococcus aureus SH1000
[9] = test system: Pseudomonas aeruginosa PAO1
[10] = test system: Escherichia coli D31
[11] = test system: Bacillus subtilis ATCC 6633
[12] = test system: Staphylococcus aureus ATCC 25923
[13] = test system: Candida albicans ATCC 10231
[14] = test system: Pseudomonas aeruginosa ATCC 15442
[15] = test system: Streptococcus mutans ATCC 25175
[16] = test system: Staphylococcus aureus MR
[17] = test system: Staphylococcus aureus ATCC 12600
[18] = test system: Staphylococcus aureus ATCC 33591
[19] = test system: Pseudomonas aeruginosa ATCC 10145
[20] = test system: Cryptococcus neoformans ATCC 32045
[21] = test system: Escherichia coli ATCC 2592

**Q.** How did the MIC [1] turn out when CC[C@H](C)[C@H](NC(=O)[C@H](CC(=O)O)NC(=O)[C@H](Cc1ccccc1)NC(=O)[C@H](CC(C)C)NC(=O)CN)C(=O)N[C@H](C(=O)N[C@@H](CCCCN)C(=O)N[C@@H](CCCCN)C(=O)N[C@H](C(=O)N[C@@H](CC(C)C)C(=O)N[C@@H](CCCCN)C(=O)N[C@@H](CC(C)C)C(=O)N[C@@H](CC(C)C)C(=O)N[C@@H](CCCCN)C(N)=O)C(C)C)C(C)C [GLFDIVKKVLKLLK] was run?
**A.** > 20 µM

**Q.** And the MIC [2]?
**A.** > 20 µM

**Q.** What about the MIC [3] of the same compound?
**A.** 20 µM (≈ 32.3 µg/mL)

**Q.** And the MIC [4]?
**A.** > 20 µM

**Q.** And the MIC [5]?
**A.** > 20 µM

**Q.** And the MIC [6]?
**A.** > 20 µM

**Q.** And the MIC [7]?
**A.** 20 µM (≈ 32.3 µg/mL)

**Q.** What about the MIC [8] of the same compound?
**A.** 3.3 µM (≈ 5.32 µg/mL)

**Q.** Which MIC [9] does the source give for CC[C@H](C)[C@H](NC(=O)[C@H](CCCCN)NC(=O)[C@H](CCC(N)=O)NC(=O)[C@H](CC(C)C)NC(=O)[C@@H](N)Cc1ccccc1)C(=O)N[C@H](C(=O)NCC(=O)N[C@@H](C)C(=O)N[C@@H](CC(C)C)C(=O)NCC(=O)N[C@@H](Cc1cnc[nH]1)C(=O)N[C@@H](CC(C)C)C(=O)N[C@@H](Cc1ccccc1)C(N)=O)[C@@H](C)CC [FLQKIIGALGHLF] here?
**A.** > 100 µM

**Q.** What about the MIC [1] of the same compound?
**A.** 6.2 µM (≈ 9.03 µg/mL)

**Q.** What about the MIC [10] of the same compound?
**A.** ≥ 100 µM

**Q.** And the MIC [11]?
**A.** ≥ 100 µM

**Q.** What about the MIC [2] of the same compound?
**A.** 12.5 µM (≈ 18.2 µg/mL)

**Q.** What about the MIC [12] of the same compound?
**A.** 3.1 µM (≈ 4.51 µg/mL)

**Q.** And the MIC [13]?
**A.** > 100 µM

**Q.** What about the MIC [14] of the same compound?
**A.** 6.2 µM (≈ 9.03 µg/mL)

**Q.** And the MIC [15]?
**A.** 6.2 µM (≈ 9.03 µg/mL)

**Q.** What about the MIC [16] of the same compound?
**A.** 12.5 µM (≈ 18.2 µg/mL)

**Q.** How did the MIC [2] turn out when CC[C@H](C)[C@H](NC(=O)[C@H](C)NC(=O)CNC(=O)[C@H](Cc1ccccc1)NC(=O)[C@H](CC(C)C)NC(=O)CN)C(=O)N[C@@H](C)C(=O)NCC(=O)N[C@@H](Cc1ccccc1)C(=O)N[C@H](C(=O)N[C@@H](CCCCN)C(=O)N[C@@H](CC(N)=O)C(=O)NCC(=O)N[C@@H](Cc1c[nH]c2ccccc12)C(=O)N[C@@H](CCCCN)C(=O)NCC(=O)N[C@@H](CCSC)C(=O)N[C@H](C(=O)N[C@@H](CCCCN)C(=O)NCC(N)=O)[C@@H](C)CC)[C@@H](C)CC [GLFGAIAGFIKNGWKGMIKG] was run?
**A.** 3.8 µM (≈ 7.85 µg/mL)

**Q.** And the MIC [17]?
**A.** 3.8 µM (≈ 7.85 µg/mL)

**Q.** What about the MIC [15] of the same compound?
**A.** 1.9 µM (≈ 3.92 µg/mL)

**Q.** And the MIC [5]?
**A.** 7.6 µM (≈ 15.7 µg/mL)

**Q.** For NCCCC[C@H](NC(=O)[C@H](Cc1ccccc1)NC(=O)[C@H](CCCCN)NC(=O)[C@H](CCCCN)NC(=O)[C@H](Cc1ccccc1)NC(=O)[C@H](CCCCN)NC(=O)[C@H](CCCCN)NC(=O)[C@H](Cc1ccccc1)NC(=O)[C@H](CCCCN)NC(=O)[C@H](CCCCN)NC(=O)[C@H](Cc1ccccc1)NC(=O)[C@H](CCCCN)NC(=O)[C@H](CCCCN)NC(=O)[C@H](Cc1ccccc1)NC(=O)[C@H](CCCCN)NC(=O)[C@H](CCCCN)NC(=O)[C@H](Cc1ccccc1)NC(=O)[C@H](CCCCN)NC(=O)[C@H](CCCCN)NC(=O)[C@H](Cc1ccccc1)NC(=O)[C@@H](N)CCCCN)C(=O)O [KFKKFKKFKKFKKFKKFKKFK], which MIC [18] is on record?
**A.** ≥ 176 µM

**Q.** What about the MIC [19] of the same compound?
**A.** ≥ 44 µM

**Q.** And the MIC [13]?
**A.** 124 µM (≈ 354 µg/mL)

**Q.** What about the MIC [20] of the same compound?
**A.** 17.5 µM (≈ 49.8 µg/mL)

**Q.** And the MIC [21]?
**A.** 15.4 µM (≈ 43.8 µg/mL)
